The values below come from article PMC4308083, “Cytokine-Induced Loss of Glucocorticoid Function: Effect of Kinase Inhibitors, Long-Acting β2-Adrenoceptor Agonist and Glucocorticoid Receptor Ligands” (PLoS ONE, 2015).

For assay [1], the system named is CDKN1C, DUSP1, RGS2 and TSC22D3 mRNA in BEAS-2B cells. The assay is described as follows: RT-PCR of glucocorticoid-inducible gene expression in BEAS-2B cells. Conditions: for Effect on dexamethasone-induced mRNA expression of CDKN1C, DUSP1, RGS2, TSC22D3 in absence or presence of TNF: JNK inhibitor VIII 3 or 10 μM, PS-1145 10 μM, 6 h (Fig. 7).
Experimental: Cells were harvested 6 h after Dex addition.
BEAS-2B cells were pre-treated for 30 min with either 10 or 3 μM of the JNK MAPK inhibitor JNK inhibitor VIII (JNK) or 10 μM of the IKK2 inhibitor PS-1145 (PS), before addition of 10 ng/ml tumor necrosis factor-α (TNF).
Cells were harvested 6 h after NR3C1 ligand addition.
Assay [2] concerns 2×GRE reporter. As to the kind of experiment: Modulation of dexamethasone/NR3C1 ligand-induced 2×GRE reporter activation (kinase inhibitors, TNF, formoterol) in BEAS-2B cells. The format is cell-based, human. Conditions: for 2×GRE reporter induction restored in presence of TNF, % of that induced by dexamethasone: 10 μM inhibitor 30 min pre-treatment, 6 h (Fig. 3A); for 2×GRE reporter induction restored in presence of TNF, % of that induced by dexamethasone / TNF-induced repression reversed to % of the response to dexamethasone / EC50: TNF 10 ng/ml; for Effect on dexamethasone-induced 2×GRE reporter activation (concentration-response): 30 min pre-treatment, 6 h (Fig. 3B, Fig. 4), JNK inhibitor VIII only at 30 μM, PKC inhibitors above 1 μM; for TNF-induced repression reversed to % of the response to dexamethasone: concentration-response, repression ~60% without inhibitor; for TNF-induced repression reversed to % of the response to dexamethasone / EC50: 6 h (Fig. 3B); for EC50: read-out: EC50 for reversal of TNF-induced repression of 2×GRE reporter; for 2×GRE reporter induction restored in presence of TNF, % of that induced by dexamethasone / Effect on dexamethasone-induced 2×GRE reporter activation (concentration-response) / TNF-induced repression reversed to % of the response to dexamethasone / EC50: dexamethasone. How it is done: BEAS-2B cells stably transfected with a glucocorticoid response element (2×GRE) driven luciferase reporter plasmid, pGL3.neo.TATA.neo [23], were cultured in medium containing 0.25 mg/ml G-418 (Promega, Madison, WI). Cells were grown to confluence in 24 or 48 well plates and incubated overnight in serum-free media prior to experiments. Cells were harvested in reporter lysis buffer and luciferase assays performed according to the manufacturer’s instructions (Firefly Luciferase Assay Kit; Biotium; Hayward, CA) using a 20/20n luminometer (Promega).
Data (n = 7), expressed as a percentage of Dex activation, are plotted as means ± S.E. BEAS-2B 2×GRE cells were pre-treated for 30 min with the indicated concentrations of B. PS or JNK or C. JNK in the presence or absence of 10 μM PS, before addition of 10 ng/ml TNF. After 1 h, 10 μM Dex was added and cells harvested 6 h later for luciferase assay. […] D+T indicates Dex plus TNF treatment.
Data (n = 3–4), expressed as fold activation, are plotted as means ± S.E. D+T indicates Dex plus TNF treatment.
Cells were harvested after 6 h for luciferase assays. Data (n = 7), expressed as fold activation, are plotted as means ± S.E. Lines of best fit were added in panel B. Statistical analyses were performed by ANOVA with a Dunnett’s test comparing each NR3C1 ligand alone versus in the presence of TNF and/or Form. *, P<0.05; **, P<0.01; ***, P<0.001.

The subject of assay [3] is JUN (c-Jun) phosphorylation. The assay is described as follows: Western blot of TNF-induced JUN phosphorylation in BEAS-2B cells. The settings on record: 30 min pre-treatment, TNF 10 ng/ml 15 min, western blot (S1 Fig.), read-out: EC50 for decrease of TNF-induced JUN phosphorylation. The format is cell-based, human. From the text: (§1) Cells were lysed in 1× Laemmli buffer supplemented with phosphatase inhibitors (Sigma-Aldrich) and 1× complete protease inhibitor cocktail (Roche; Indianapolis, IN), size fractionated on 12% acrylamide gels and subsequently electro-transferred onto Hybond enhanced chemiluminescent membranes (GE Healthcare; Waukesha, WI). Membranes were blocked in 5% milk in tris-buffered saline containing 1% tween 20 and probed with antibodies against phospho-jun proto-oncogene (pJUN; pc-Jun) (9164; Cell Signaling Technology; Danvers, MA), nuclear factor of kappa light polypeptide gene enhancer in B-cells inhibitor, alpha (NFKBIA; IκBα) (sc-371; Santa Cruz Biotechnology; Dallas, TX), phospho-NFKBIA (9246; Cell Signaling Technology), phospho-AKT1 (9271S; Cell Signaling Technology), AKT (9272S; Cell Signaling Technology) and GAPDH (4699–9555(ST); AbD Serotec; Raleigh, NC). After washing, membranes were incubated with horseradish peroxidase-conjugated anti-rabbit (111–035–003; Jackson ImmunoResearch Laboratories Inc; West Grove, PA) or anti-mouse immunoglobulin (115–035–003; Jackson ImmunoResearch Laboratories Inc). Detection was by enhanced chemiluminescence (Pierce ECL Western Blotting Substrate; Thermo Fisher Scientific Inc.; Rockford, IL) and visualization by autoradiography. […]

For assay [4], the system named is NFKBIA (IκBα) phosphorylation. As to the kind of experiment: Western blot of TNF-induced NFKBIA phosphorylation in BEAS-2B cells. The settings on record: 30 min pre-treatment, TNF 2 min, western blot (S1 Fig.), read-out: EC50 for reduction of TNF-induced NFKBIA phosphorylation. The format is cell-based, human.
Source text: as §1
(In western blotting, separated proteins are transferred to a membrane and probed.)

Structures are written as SMILES.

A word on the EC50: it is the concentration needed to bring the measured effect to its halfway point. On to `CCOc1nc(NC(=O)Cc2cc(OC)ccc2OC)cc(N)c1C#N` [JNK inhibitor VIII], for which the “Effect on dexamethasone-induced mRNA expression of CDKN1C, DUSP1, RGS2, TSC22D3 in absence or presence of TNF” value in assay [1] is on record as “no significant effect”. Also, in assay [2], the “2×GRE reporter induction restored in presence of TNF, % of that induced by dexamethasone” value was determined as 77%; the “Effect on dexamethasone-induced 2×GRE reporter activation (concentration-response)” value was “modestly enhanced”; the “TNF-induced repression reversed to % of the response to dexamethasone” value came to 87%; the EC50 was determined as 1600 nM. The EC50 in assay [3] was about 300 nM.
On to `O=C(Nc1cc(Cl)cc2c1[nH]c1cnccc12)c1cccnc1` [PS-1145], for which, in assay [4], the EC50 was about 1000 nM. For the same molecule, the “Effect on DUSP1 mRNA expression with dexamethasone plus TNF plus formoterol” value in assay [1] (10 μM PS-1145, 6 h (Fig. 7)) was “significantly enhanced”. Besides, the “Effect on dexamethasone-induced mRNA expression of CDKN1C, DUSP1, RGS2, TSC22D3 in absence or presence of TNF” value in assay [1] was “no significant effect”. For the same molecule, in assay [2], the “2×GRE reporter induction restored in presence of TNF, % of that induced by dexamethasone” value amounted to 73%; the “Effect on dexamethasone-induced 2×GRE reporter activation (concentration-response)” value is on record as “no effect”; the “TNF-induced repression reversed to % of the response to dexamethasone” value came out at 76%; the EC50 came out at 600 nM. Further, in assay [2] (up to 10 μM JNK inhibitor VIII, TNF, dexamethasone (Fig. 3C)), the “Additional effect of 10 μM PS-1145 on 2×GRE reporter activity with JNK inhibitor VIII” value is reported as “no obvious additional effect”.
